Tested on: Plasmodium berghei
Assay: Luciferase/luciferin-expressing antifolate-resistant parasites were used to infect a culture of HepG2 cells that were pre-incubated with compounds. Infected hepatocytes emit light due to the luciferase reaction. Assay results are presented as the percent inhibition of light emission compared to control. […]
Format: functional
Conditions: sporozoite; for IC50: read-out: LUCIFERASE INFECTION ASSAY - IC50; for IC90: read-out: LUCIFERASE INFECTION ASSAY - IC90

O=C1/C(=C\c2ccncc2)C(c2ccccc2)Oc2ccccc21 (stereo not drawn)
IC50: 9.06 µM | IC90: 9.96 µM

O=C1c2ccccc2C(=Cc2ccc(C(F)(F)F)cc2)c2ccccc21
IC50: 3.58 µM | IC90: 4.1 µM

FC(F)(F)Oc1ccc(N=C(S)Nc2ccc(OC(F)(F)F)cc2)cc1
IC50: > 8.33 µM | IC90: > 8.33 µM

S=C(NCc1ccco1)Nc1ccc(Oc2ccc(Cl)cc2)cc1
IC50: > 9.2 µM | IC90: > 9.2 µM

CCCCCCCCCCCCN1C(=O)CSC1c1cccnc1 (stereo not drawn)
IC50: > 9.47 µM | IC90: > 9.47 µM

N#C/C(=N\Nc1ccc(Cl)cc1)C(=O)c1ccsc1
IC50: > 11.4 µM | IC90: > 11.4 µM

CCCCCCCCCCCCSC(=S)c1c(C)[nH]n(-c2ccccc2)c1=O
IC50: > 7.88 µM | IC90: > 7.88 µM

CC(C)c1ccc(Nc2ncnc(N)n2)c(Br)c1
IC50: > 10.7 µM | IC90: > 10.7 µM

Cc1cc(I)ccc1N1C(=O)C=CC1=O
IC50: 5.55 µM | IC90: > 10.5 µM

COc1ccccc1NC(=S)NC(c1ccccc1)c1ccccc1
IC50: > 9.47 µM | IC90: > 9.47 µM

CS(=O)(=O)Nc1ccc(S(=O)(=O)NC23CC4CC(CC(C4)C2)C3)cc1
IC50: > 8.58 µM | IC90: > 8.58 µM

COc1ccc(-c2ccc(C=C(C#N)C#N)s2)cc1
IC50: 0.403 µM | IC90: 0.914 µM

Cc1noc(/C=C/c2cc(C(F)(F)F)cc(C(F)(F)F)c2)c1[N+](=O)[O-]
IC50: > 9.01 µM | IC90: > 9.01 µM

OC(c1ccccc1)c1cccs1 (stereo not drawn)
IC50: > 17.3 µM | IC90: > 17.3 µM

CCOC(=O)C1=C(N)n2c(s/c(=C\c3ccc(OC)cc3)c2=O)=CC1c1ccc(OC)cc1 (stereo not drawn)
IC50: > 7.1 µM | IC90: > 7.1 µM

CCCN1CCCC(NC(=S)Nc2ccc(Br)cc2C)C1 (stereo not drawn)
IC50: > 8.91 µM | IC90: > 8.91 µM

COc1cc(NC(=S)Nc2ccc(Cl)cc2)cc(C(F)(F)F)c1
IC50: > 9.15 µM | IC90: > 9.15 µM

C=C1CC(=O)N(c2ccc(OC(F)(F)F)cc2)C1=O
IC50: > 12.2 µM | IC90: > 12.2 µM

c1ccc2cc(-c3csc(Nc4cccc5ccccc45)n3)ccc2c1
IC50: > 9.36 µM | IC90: > 9.36 µM

CC(C)Cc1ccc(C(=O)CC(Sc2ccccc2N)c2ccc(Cl)cc2)cc1 (stereo not drawn)
IC50: 0.135 µM | IC90: 1.03 µM

N#Cc1ccccc1OC(=O)Nc1ccc(OC(F)(F)F)cc1
IC50: 3.31 µM | IC90: 3.62 µM

Cc1ccc(NC(=S)Nc2ccc(Cl)cc2)cc1F
IC50: > 11.2 µM | IC90: > 11.2 µM

Cc1ccc(Cl)cc1NC(=S)N/N=C\c1cccc2ccccc12
IC50: 0.805 µM | IC90: 1.85 µM

CCCC(/N=C/c1cc(Cl)ccc1O)/N=C/c1cc(Cl)ccc1O
IC50: > 9.03 µM | IC90: > 9.03 µM

COc1ccc(OC)c(S(=O)(=O)Nc2ccc(S(=O)(=O)Nc3cc(C(F)(F)F)cc(C(F)(F)F)c3)cc2)c1
IC50: > 5.65 µM | IC90: > 5.65 µM

CC1C/C(=N\Nc2cc(Cl)cc(Cl)c2)c2cc(Cl)ccc2S1(=O)=O (stereo not drawn)
IC50: 6.27 µM | IC90: > 8.17 µM

CC(C)(C)c1ccc(C(=O)Nc2cc(Cl)cc(Cl)c2)cc1
IC50: > 10.2 µM | IC90: > 10.2 µM

CC(C)c1ccc(C2C3CCc4ccccc4C3=NN2C)cc1 (stereo not drawn)
IC50: 0.0716 µM | IC90: 0.553 µM

O=C(Nc1ccc(Cl)cc1)Nc1nc(-c2cc(Cl)c(Cl)s2)cs1
IC50: 1.13 µM | IC90: 1.77 µM

COc1ccc(CCN2CSC(=S)N(CCc3ccc(OC)c(OC)c3)C2)cc1OC
IC50: > 7.13 µM | IC90: > 7.13 µM

O=C(Nc1ccc(-n2nc(C(F)(F)F)cc2C(F)(F)F)cc1)Nc1cc(Cl)cc(Cl)c1
IC50: 1.83 µM | IC90: 2.08 µM

N=C1C(=S)N(c2ccc(Cl)c(Cl)c2)C(=O)N1c1ccc(Cl)c(Cl)c1
IC50: > 7.87 µM | IC90: > 7.87 µM

O=C(CC12CC3CC(CC(C3)C1)C2)Nc1ccc(C(F)(F)F)cc1
IC50: > 9.78 µM | IC90: > 9.78 µM

Cc1ccc(N2C(=O)C=CC2=O)cc1C
IC50: 6.57 µM | IC90: 12.2 µM

CC(=O)N(/N=C/c1ccc(C(F)(F)F)cc1)C1=NN(C(C)=O)C(c2ccc(C(F)(F)F)cc2)S1 (stereo not drawn)
IC50: > 6.57 µM | IC90: > 6.57 µM

ONC(=Nc1cccc(C(F)(F)F)c1)c1ccccc1
IC50: > 11.8 µM | IC90: > 11.8 µM

Cc1cccc(C)c1NC(=O)NCCSCc1c(Cl)cccc1Cl
IC50: > 8.61 µM | IC90: > 8.61 µM

Cc1ccc(N2C(=O)C=CC2=O)cc1N1C(=O)C=CC1=O
IC50: 7.78 µM | IC90: > 11.7 µM

O=C(Nc1ccc([N+](=O)[O-])cc1)n1nccc1-c1ccc(-c2cccs2)s1
IC50: 7.77 µM | IC90: > 8.32 µM

C=CCNC(=S)Nc1ccc(Oc2cc(C(F)(F)F)cc(C(F)(F)F)c2)cc1
IC50: 3.04 µM | IC90: 6.91 µM

CC(C)(C)c1ccc(NC(=S)NCCCCCCNC(=S)Nc2ccc(C(C)(C)C)cc2)cc1
IC50: > 6.62 µM | IC90: > 6.62 µM

FC(F)(F)c1ccc(/C=N/Nc2c(Cl)cc(C(F)(F)F)cc2Cl)cc1
IC50: > 8.23 µM | IC90: > 8.23 µM

N=C(NOC(=O)Nc1ccc(OC(F)(F)F)cc1)c1cc(Cl)c(N)c(Cl)c1
IC50: > 7.8 µM | IC90: > 7.8 µM

COc1ccc2c(c1)CC/C(=C\c1ccc(C(C)C)cc1)C2=O
IC50: > 10.8 µM | IC90: > 10.8 µM

COc1ccc2cc(/C(C)=N/OC(=O)Nc3cc(Cl)cc(Cl)c3)ccc2c1
IC50: 4.08 µM | IC90: 8.12 µM

O=C(Nc1cccc(Cl)c1)n1nccc1-c1ccc(-c2cccs2)s1
IC50: > 8.55 µM | IC90: > 8.55 µM

CCCc1cc(=O)oc2cc(OCC(=O)NNC(=S)NC(=O)c3ccc(Cl)cc3)ccc12
IC50: > 6.96 µM | IC90: > 6.96 µM

CC1=NN(c2ccc(C)cc2)C(=O)C1=C1SCCS1
IC50: 1.99 µM | IC90: > 11.4 µM

CC(=O)N(/N=C/c1ccc(Cl)cc1)C1=NN(C(C)=O)C(c2ccc(Cl)cc2)S1 (stereo not drawn)
IC50: > 7.58 µM | IC90: > 7.58 µM

COc1ccc(C(=O)Nc2ccc(Oc3cc(C(F)(F)F)cc(C(F)(F)F)c3)cc2)cc1
IC50: 0.486 µM | IC90: 2.35 µM

CC(=O)Nc1ccc(S(=O)(=O)Oc2ccc(C)cc2[N+](=O)[O-])cc1
IC50: > 9.42 µM | IC90: > 9.42 µM

O=C(Nc1cccc(C(F)(F)F)c1)c1ccc(-c2ccccc2F)cc1
IC50: > 9.18 µM | IC90: > 9.18 µM

O=C1Nc2ccccc2/C1=C/c1ccc(C(F)(F)F)cc1Cl
IC50: > 10.2 µM | IC90: > 10.2 µM

COc1ccccc1C1CCN(c2ccc([N+](=O)[O-])c(C(F)(F)F)c2)CC1
IC50: > 8.68 µM | IC90: > 8.68 µM

CCCc1c(Cc2c(F)cccc2Cl)c(=O)oc2cc(OC(=O)c3ccccc3Cl)ccc12
IC50: > 6.8 µM | IC90: > 6.8 µM

CCCS(=O)(=O)/C(C#N)=C/c1ccc(-c2ccc(OC)cc2)s1
IC50: 1.09 µM | IC90: 2.37 µM

O=C1OC(CC(=O)c2csc3ccccc23)c2ccccc21 (stereo not drawn)
IC50: 6.16 µM | IC90: 8.63 µM

O=C1N(CN2CCCCC2)c2ccc(Br)cc2C12OCCO2
IC50: > 8.99 µM | IC90: > 8.99 µM

CC(C)(C)c1ccc(C(=O)Nc2ccc(Oc3ccc(Cl)cc3)cc2)cc1
IC50: > 8.69 µM | IC90: > 8.69 µM

CC(C)(C)C(=O)Nc1ccccc1Sc1ccc([N+](=O)[O-])c(Sc2ccccc2NC(=O)C(C)(C)C)n1
IC50: > 6.13 µM | IC90: > 6.13 µM

Cc1ccc(N2C(=N)C(=S)N(c3ccc(Cl)c(Cl)c3)C2=O)cc1
IC50: > 9.06 µM | IC90: > 9.06 µM

O=C1C=CC(=O)N1c1ccccc1Cl
IC50: 6.18 µM | IC90: > 15.9 µM

COc1ccccc1N1C(=O)C=CC1=O
IC50: > 16.2 µM | IC90: > 16.2 µM

O=C1C=CC(=O)N1c1cccc(Cl)c1
IC50: > 15.9 µM | IC90: > 15.9 µM
